In general, pIC50 refers to −log10 of the IC50, conventionally taken in molar units. The low end stands for a large IC50, the high end for a small IC50. One may read the MIC as the lowest concentration found to suppress growth.

The source of these data is patent publication US10941158B2, “Pyrazole ACC inhibitors and uses thereof” (Gilead Apollo, LLC, priority 2015, dated 2021).

Test [1] concerns the target human (hACC2) ACC2 (Homo sapiens, UniProt O00763). Put plainly: In vitro Acetyl-CoA Carboxylase (ACC) inhibition assay (ADP-Glo), hACC2. In kind it is biochemical. The procedure: The detailed procedure is as follows. […] 10 μL ADP glo reagent was added. […] 20 μL kinase detection reagent was added.
“NA” stands for “not assayed.”
For orientation: In ADP-Glo the light output rises with the ADP produced.

For test [2], the system named is C. albicans ATCC 90028. Put plainly: Anti-Fungal (Candida) Activity Assay, broth microtiter MIC. In kind it is cell-based. The following applies: ATCC90028, 48 h, read-out: MIC C. albicans ATCC 90028. The procedure:
(§1) Compounds of the present invention were evaluated in an Anti-Fungal Activity Assay. An exemplary procedure for the assay, which measures the susceptibility of various Candida species to anti-fungal compounds, follows. Compounds to be tested (including fluconazole and amphotericin B) were dissolved in DMSO to obtain a solution having a concentration of 1 mg/mL. […] All species were grown from frozen stock by directly plating on to freshly prepared Sabouraud Dextrose agar (BD, Difco) and incubated overnight in ambient air at 35° C. for 24 h. A direct suspension was prepared in RPMI 1640+MOPS (Lonza, Biowhittaker) by taking individual colonies from the overnight cultures using sterile swabs soaked in sterile saline. The concentration of the suspension was determined using pre-determined standard curves. […] Broth microtiter MIC challenge plates were prepared following CLSI guidelines (M27-A3, Vol. 28 No. 14). The original CLSI guidelines focused on reading Candida MICs after 48 h of incubation. As reading after only 24 h offers a clear advantage of patient care, QC limits are being established for all drugs at 24 h. That being said there are no known interpretive breakpoints for amphotericin B at 24 h and the current fluconazole interpretive breakpoints are based on a 48 h reading. The MIC for the test compounds were recorded at 48 h. All MIC determinations were achieved by visually comparing the growth found in the antibiotic challenged wells to that of the growth control.

Test [3] has as its system C. krusei ATCC 6258. The description is as above. Format: cell-based. The following applies: Pichia kudriavzevii, ATCC6258, 48 h, read-out: MIC C. krusei ATCC 6258. The procedure:
as §1

The test system of test [4] is C. parapsilosis ATCC 22019. Described as above. In kind it is cell-based. To be noted: Lodderomyces parapsilosis, ATCC22019, 48 h, read-out: MIC C. parapsilosis ATCC 22019. The procedure: as §1
The subject of test [5] is Botrtyis cinerea (Bc). The experiment in a line: Growth inhibition assay of fungal pathogens. In kind it is cell-based. To be noted: 48 h, read-out: Concentration at 90% Inhibition Bc. The procedure: (§2) Compounds of the present invention were evaluated in a growth inhibition assay to determine the ability to control the growth of fungal pathogens, such as Botrtyis cinerea (Bc), Collectotrichum graminicola (Cg). Diplodia maydis (Dm), Fusarium moniliforme (Fm), Fusarium virguliforme (Fv), Phytophthora capsici (Pc), Rhizoctonia solani (Rs), and Septoria tritici (St). Compounds to be tested were dissolved in DMSO at 2.5 mg/ml to produce compound stock solutions (“stocks”). Stocks were diluted with DMSO by a five-fold dilution in a 96-well stock plate, and two sets of final concentrations of 50, 10, and 2 ppm or 2, 0.4, and 0.08 ppm were obtained in vitro. A set of positive controls was also prepared, with various concentrations of Soraphen (2, 0.4, and 0.08 ppm), Metalaxyl (1.1, 0.22, and 0.04 ppm), and Metconazole (2, 0.4, and 0.08 ppm or 0.2, 0.04, and 0.008 ppm) after the five-fold dilutions. Negative controls on each plate included 2% DMSO, water, and a blank (media+2% DMSO). Fungal spores were isolated from previously sub-cultured plates of Botrtyis cinerea (Bc). Collectotrichum graminicola (Cg). Diplodia maydis (Dm), Fusarium moniliforme (Fm), Fusarium virguliforme (Fv), Phytophthora capsici (Pc), and Septoria tritici (St). The isolated spores were diluted to individual concentrations with a 17% V8 liquid media. For Rhizoctonia solani (Rs) and Pythium irregulare, 1.5 mm mycelial plugs were used in place of spores and ¼ Potato Dextrose Broth (PDB) was used for dilution. The spore concentrations and plug sizes were based on growth curves generated at 48 hours for each pathogen. In a second 96-well plate, the spores or mycelial plugs, media, diluted compound solutions, and controls were combined. Once the compound was added, a true final concentration of compound in each well was measured by an OD600 reading, which adjusted for any compound precipitation that might have occurred in the well. Plate readings were repeated at both 24 and 48 hours. The blank negative control was used as a background subtraction. Additional visual ratings were performed at both 24 and 48 hours for checking on precipitation and confirming efficacy. Visual and OD600 ratings of the compounds at 48 hours were compared to the 2% DMSO negative control, and the percent of pathogen growth inhibition was determined based on those values.

The test system of test [6] is Collectotrichum graminicola (Cg). Put plainly: Growth inhibition assay of fungal pathogens. Format: cell-based. To be noted: 48 h, read-out: Concentration at 90% Inhibition Cg. The procedure:
as §2

The test system of test [7] is Diplodia maydis (Dm). Put plainly: Growth inhibition assay of fungal pathogens. The following applies: Stenocarpella maydis, 48 h, read-out: Concentration at 90% Inhibition Dm. In kind it is cell-based. The procedure: as §2
The test system of test [8] is Fusarium moniliforme (Fm). Put plainly: Growth inhibition assay of fungal pathogens. In kind it is cell-based. The following applies: for IC90: Fusarium verticillioides, 48 h, read-out: Concentration at 90% Inhibition Fm; for Concentration at 90% Inhibition Fm: Table 4b, 48 hours. The procedure: as §2
For test [9], the system named is Fusarium virguliforme (Fv). Put plainly: Growth inhibition assay of fungal pathogens. Format: cell-based. The following applies: 48 h. The procedure:
as §2

Test [10] relates to Phytophthora capsici (Pc). Put plainly: Growth inhibition assay of fungal pathogens. Format: cell-based. The following applies: Phytophthora capsici, 48 h, read-out: Concentration at 90% Inhibition Pc. The procedure: as §2
For test [11], the system named is Rhizoctonia solani (Rs). Put plainly: Growth inhibition assay of fungal pathogens. Format: cell-based. To be noted: 48 h, read-out: Concentration at 90% Inhibition Rs. The procedure: as §2
Test [12] has as its system Septoria tritici (St). Put plainly: Growth inhibition assay of fungal pathogens. In kind it is cell-based. To be noted: Zymoseptoria tritici, 48 h, read-out: Concentration at 90% Inhibition St. The procedure: as §2
[13] abbreviates: read-out: Concentration at 90% Inhibition Fv, Table 4a, 48 hours.
Where [14] appears, read: read-out: Concentration at 90% Inhibition Fv, Table 4b, 48 hours.

Structures are written as SMILES. pIC50: −log10 of the molar value. Converted amounts (≈) assume the structure as drawn. Like-named read-outs stand apart in the source and are kept apart here. Some results are limits rather than exact numbers.

human (hACC2) ACC2, sequence (O00763 whole entry): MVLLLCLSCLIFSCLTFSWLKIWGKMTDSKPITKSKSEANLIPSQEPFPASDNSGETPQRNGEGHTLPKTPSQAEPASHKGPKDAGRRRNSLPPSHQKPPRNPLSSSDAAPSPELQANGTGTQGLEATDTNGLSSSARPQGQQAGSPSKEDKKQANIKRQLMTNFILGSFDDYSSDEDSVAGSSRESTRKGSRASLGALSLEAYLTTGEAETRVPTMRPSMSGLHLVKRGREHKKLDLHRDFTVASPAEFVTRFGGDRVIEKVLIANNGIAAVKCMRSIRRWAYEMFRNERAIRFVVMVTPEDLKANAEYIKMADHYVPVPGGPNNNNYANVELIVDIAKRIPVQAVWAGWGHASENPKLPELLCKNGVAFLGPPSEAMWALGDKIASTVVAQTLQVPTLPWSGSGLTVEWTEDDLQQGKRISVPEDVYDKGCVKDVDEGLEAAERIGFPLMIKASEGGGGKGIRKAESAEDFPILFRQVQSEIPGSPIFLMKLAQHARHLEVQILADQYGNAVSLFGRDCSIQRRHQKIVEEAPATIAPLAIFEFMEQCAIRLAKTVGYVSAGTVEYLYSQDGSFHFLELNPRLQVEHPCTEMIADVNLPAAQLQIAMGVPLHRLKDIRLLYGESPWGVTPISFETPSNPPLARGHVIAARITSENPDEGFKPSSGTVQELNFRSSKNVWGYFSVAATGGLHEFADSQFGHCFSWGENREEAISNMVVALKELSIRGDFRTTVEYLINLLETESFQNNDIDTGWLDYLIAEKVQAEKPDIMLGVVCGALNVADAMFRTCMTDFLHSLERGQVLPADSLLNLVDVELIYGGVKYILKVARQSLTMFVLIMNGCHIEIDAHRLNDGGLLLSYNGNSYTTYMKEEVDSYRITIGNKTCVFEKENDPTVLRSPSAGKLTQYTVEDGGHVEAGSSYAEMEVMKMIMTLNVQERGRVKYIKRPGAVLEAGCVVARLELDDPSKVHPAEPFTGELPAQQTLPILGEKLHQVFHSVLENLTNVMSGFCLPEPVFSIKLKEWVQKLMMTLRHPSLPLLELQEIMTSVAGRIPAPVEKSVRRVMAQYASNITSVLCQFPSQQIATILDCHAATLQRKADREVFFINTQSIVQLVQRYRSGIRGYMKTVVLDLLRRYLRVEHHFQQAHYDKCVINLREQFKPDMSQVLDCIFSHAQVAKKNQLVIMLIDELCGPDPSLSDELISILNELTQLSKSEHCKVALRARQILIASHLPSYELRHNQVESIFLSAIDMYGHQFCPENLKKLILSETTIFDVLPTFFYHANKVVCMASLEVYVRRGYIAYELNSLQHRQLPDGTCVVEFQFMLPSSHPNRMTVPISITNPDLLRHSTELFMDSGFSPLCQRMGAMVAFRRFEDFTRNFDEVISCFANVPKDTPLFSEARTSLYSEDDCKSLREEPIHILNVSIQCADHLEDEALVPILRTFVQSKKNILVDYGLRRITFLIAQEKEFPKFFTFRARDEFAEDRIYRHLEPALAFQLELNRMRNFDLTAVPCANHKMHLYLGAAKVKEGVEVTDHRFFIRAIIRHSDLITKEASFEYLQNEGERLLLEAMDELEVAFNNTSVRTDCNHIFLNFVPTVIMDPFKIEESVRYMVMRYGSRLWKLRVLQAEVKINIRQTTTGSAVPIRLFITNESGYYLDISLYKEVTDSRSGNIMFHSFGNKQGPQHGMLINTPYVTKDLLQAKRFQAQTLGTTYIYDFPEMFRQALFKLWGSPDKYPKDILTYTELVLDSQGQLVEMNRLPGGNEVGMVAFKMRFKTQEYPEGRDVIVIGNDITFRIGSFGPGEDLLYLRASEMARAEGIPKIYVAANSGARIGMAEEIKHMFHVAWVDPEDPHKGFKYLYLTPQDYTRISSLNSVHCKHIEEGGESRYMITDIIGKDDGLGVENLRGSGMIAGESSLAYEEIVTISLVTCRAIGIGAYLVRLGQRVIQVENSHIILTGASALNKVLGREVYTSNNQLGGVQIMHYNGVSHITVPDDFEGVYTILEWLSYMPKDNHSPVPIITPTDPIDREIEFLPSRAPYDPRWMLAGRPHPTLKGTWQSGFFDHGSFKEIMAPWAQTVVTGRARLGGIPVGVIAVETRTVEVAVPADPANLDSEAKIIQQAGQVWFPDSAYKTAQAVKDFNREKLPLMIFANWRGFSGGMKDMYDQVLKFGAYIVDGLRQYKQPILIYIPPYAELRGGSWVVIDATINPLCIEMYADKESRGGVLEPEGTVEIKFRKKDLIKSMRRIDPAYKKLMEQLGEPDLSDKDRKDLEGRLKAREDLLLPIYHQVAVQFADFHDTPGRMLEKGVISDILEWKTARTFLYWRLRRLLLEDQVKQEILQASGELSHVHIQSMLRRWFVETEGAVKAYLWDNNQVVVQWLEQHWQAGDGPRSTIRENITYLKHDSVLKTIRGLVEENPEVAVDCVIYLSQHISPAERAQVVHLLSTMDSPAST

The compound `COc1ccc(F)cc1[C@H](Cn1c(=O)n(C(C)(C)C(=O)N2CCCCC2)c(=O)c2c(C)c(-n3cccn3)sc21)OC1CCOCC1` [Compound I-8, (R)-1-(2-(5-fluoro-2-methoxyphenyl)-2-((tetrahydro-2H-pyran-4-yl)oxy)ethyl)-5-methyl-3-(2-methyl-1-oxo-1-(piperidin-1-yl)propan-2-yl)-6-(1H-pyrazol-1-yl)thieno[2,3-d]pyrimidine-2,4(1H,3H)-dione] had a pIC50 in test [1] of 7.40 to 8.00. In addition, the minimal inhibitory concentration (MIC) in [2], in test [3] and in test [4] was 0.25 to 1 µg/mL (≈ 0.382 to 1.53 µM) throughout. For the same compound, the IC90 was 2 µg/mL (≈ 3.06 µM) in [5] (Table 4a); 2 µg/mL (≈ 3.06 µM) in test [5] (Table 4b); 2 µg/mL (≈ 3.06 µM) in [6] (Table 4a); 2 µg/mL (≈ 3.06 µM) in test [6] (Table 4b); 10 µg/mL (≈ 15.3 µM) in test [7] (Table 4a); 2 µg/mL (≈ 3.06 µM) in test [7] (Table 4b). In addition, the IC90 in test [8] is 0.08 µg/mL (≈ 0.122 µM); in test [9] (setting [13]), 2 µg/mL (≈ 3.06 µM); in test [9] (setting [14]) it was 2 µg/mL (≈ 3.06 µM); in [10] (Table 4a), greater than 50 µg/mL; in [10] (Table 4b), greater than 50 µg/mL; in [11] (Table 4a) it was greater than 50 µg/mL. The IC90 is 10 µg/mL (≈ 15.3 µM) in [11] (Table 4b), greater than 50 µg/mL in test [12] (Table 4a) and greater than 50 µg/mL in test [12] (Table 4b). Further, in test [8], the “Concentration at 90% Inhibition Fm” value is on record as “AA (“AA” provided a compound concentration of 0.08 ppm at 90% inhibition of fungal pathogens)”.
As for `COc1ccccc1[C@H](Cn1c(=O)n(C(C)(C)C(=O)NC(C)C)c(=O)c2c(C)c(-n3cccn3)sc21)OC1CCOCC1` [Compound I-11, (R)—N-isopropyl-2-(1-(2-(2-methoxyphenyl)-2-((tetrahydro-2H-pyran-4-yl)oxy)ethyl)-5-methyl-2,4-dioxo-6-(1H-pyrazol-1-yl)-1,4-dihydrothieno[2,3-d]pyrimidin-3(2H)-yl)-2-methylpropanamide], the pIC50 in test [1] is 7.40 to 8.00. The MIC in test [2], in test [3] and in [4] was greater than 4.1 µg/mL throughout. The IC90 in test [5] (Table 4a) was greater than 50 µg/mL; in test [5] (Table 4b) it was 10 µg/mL (≈ 16.4 µM); in test [6] (Table 4a), greater than 50 µg/mL; in [6] (Table 4b) it was 10 µg/mL (≈ 16.4 µM); in [7] (Table 4a), greater than 50 µg/mL; in test [7] (Table 4b), 10 µg/mL (≈ 16.4 µM). Also, the IC90 in test [8] was 2 µg/mL (≈ 3.28 µM); in test [9] (setting [13]) it was greater than 50 µg/mL; in test [9] (setting [14]), 10 µg/mL (≈ 16.4 µM); in [10] (Table 4a), greater than 50 µg/mL; in test [10] (Table 4b), greater than 50 µg/mL; in test [11] (Table 4a) it was greater than 50 µg/mL. Also, the IC90 in test [11] (Table 4b), in [12] (Table 4a) and in test [12] (Table 4b) was greater than 50 µg/mL each time. In addition, the “Concentration at 90% Inhibition Fm” value in [8] is “B (“B” provided a compound concentration of 2.0 ppm at 90% inhibition of fungal pathogens)”.
